From patent publication US20230295133A1, “PROCESS FOR PREPARING A COMPOUND USEFUL TO TREAT MYCOSES” (PULMOCIDE LIMITED, priority 2014, published 2023) come the findings set out here.

Molecules are shown by their SMILES. Values after ≈ are worked out from the molar mass of the structure shown. Like-named read-outs stand apart in the source and are kept apart here.

The test system of data set [1] is Aspergillus fumigatus NCPF7099. As to the kind of experiment: Broth microdilution assay (modified EUCAST). It is filed as cell-based. Summed up: (§1)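 Spores from 3-day Sabouraud cultures (working suspension 2 × 10^5 spores/mL) were added to an equal volume of RPMI-1640 (2 mM L-glutamine, 0.5% BSA, 2% glucose, 0.165 M MOPS, pH 7) containing compound, in quadruplicate. After 48 hr at 35 °C, OD530 gave percent inhibition. MIC50, MIC75 and MIC90 came from concentration-response curves.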
On the technique in general: Dilution methods test growth across graded concentrations, often in twofold steps.

Data set [2] concerns Aspergillus fumigatus NCPF2010. The experiment in a line: Broth microdilution assay (modified EUCAST). Format: cell-based. The method in brief: as §1
In data set [3] the test system is Aspergillus fumigatus L98H (TR34/L98H). As to the kind of experiment: Broth microdilution assay (modified EUCAST). It is filed as cell-based. Summed up:
as §1

The subject of data set [4] is Aspergillus fumigatus NCPF7100. As to the kind of experiment: Broth microdilution assay (modified EUCAST). Format: cell-based.
Data set [5] has as its system aspergillus fumigatus infection of BEAS2B cells. As to the kind of experiment: Aspergillus fumigatus infection of bronchial epithelial cells (GM in supernatant). It is filed as cell-based. The settings on record: Aspergillus fumigatus, read-out: MIC50 Infection of BEAS2B cells. Summed up:
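BEAS2B cells in 10% FBS RPMI-1640 pre-treated with compound (0.5% DMSO final) for 1 hr at 35 °C, then infected with A. fumigatus conidia (0.5×10^5/ml suspension) for 24 hr at 35 °C. Galactomannan in 1:20-diluted supernatant measured by Platelia GM-EIA; IC50 from percent-inhibition concentration-response curves.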

Data set [6] concerns aspergillus fumigatus (ATCC 13073 [strain: NIH 5233]). The experiment in a line: In vivo anti-fungal activity, prophylactic and therapeutic treatment of infected immunocompromised neutropenic mice. Also noted: species or system A/J mice. To be noted: prophylactic treatment (days 0, 1, 2 and 3); 0.4 mg/mL.
A short description of data set [7]: Cell viability: resazurin assay. It is filed as cell-based, human. To be noted: human, BEAS2B cells; n = 3-5. Summed up: (§2)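 BEAS2B cells in RPMI-LHC8, exposed to compound for 1 day at 37 °C (0.5% DMSO final), then resazurin added for a further 4 h. Fluorescence (ex 545/em 590 nm) gives % viability loss vs 0.5% DMSO vehicle; CC50 from concentration-response curve.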
On the technique in general: Resazurin is reduced to fluorescent resorufin, in cell work by metabolically active cells.

For data set [8], the system named is Aspergillus fumigatus (NCPF2010). The experiment in a line: Resazurin-microtitre assay of planktonic fungus growth. Format: cell-based. Here is the method: This assay was conducted using a modified, published method (Monteiro et al., 2012). Spores of aspergillus fumigatus (NCPF2010, Public Health England, Wiltshire) were cultured in Sabouraud dextrose agar for 3 days. A stock spore suspension was prepared from a Sabouraud dextrose agar culture by washing with PBS-tween (10 mL; PBS containing 0.05% Tween-20, 100 U/mL Penicillin and 100 U/mL Streptomycin). The spore count was assessed using a Neubauer haemocytometer and, using PBS adjusted to 10^6 spores/mL. A working suspension of spores (10^4 spores/mL) was prepared in filter sterilised MOPS RPMI-1640 (50 mL; RPMI-1640 containing 2 mM L-glutamine, 2% glucose and 0.165 M MOPS, buffered to pH 7 with NaOH). Resazurin sodium salt (100 µL of 1% solution; Sigma-Aldrich, Dorset, UK) was added to the spore suspension and mixed well. The spore suspension-resazurin mixture (100 µL/well) was added to 384-well plates (Catalogue number 353962, BD Falcon, Oxford, UK).
Simultaneously, test compounds (0.5 µL DMSO solution) were added to 100 µL of the spore-resazurin mixture in quadruplicate to provide a final DMSO solution of 0.5% using an Integra VIAFLO 96 (Intergra, Zizers, Switzerland). For non-spore control wells, MOPS-RPMI-resazurin solution (100 µL) was added instead of the spore-resazurin mixture. The plate was covered with a Breathe Easier membrane (Catalogue No Z763624, Sigma-Aldrich, Dorset, UK), and incubated (35° C., 5% CO2) until fluorescence in the inoculated wells was double that of the control wells (around 24 hr). The fluorescence of each well (545 nm (excitation) / 590 nm (emission), gain 800, focal height 5.5 mm) was determined using a multi-scanner (Clariostar: BMG, Buckinghamshire, UK). The percentage inhibition for each well was calculated and the MIC50, MIC75 and MIC90 values were calculated from the concentration-response curve generated for each test compound.

In another data set the test system is BEAS2B cells. The experiment in a line: Cell viability: resazurin assay. The settings on record: n = 3-5. Format: cell-based, human. The method in brief:
as §2

For data set [9], the system named is Cryptococcus neoformans ATCC24067. The experiment in a line: Fungus panel screening, CLSI broth microdilution. Format: cell-based. As for the experimental part: (§3) Fungus panel screening was conducted by Eurofins Panlabs Inc. The MIC and MIC50 values of the test articles were determined following the guidelines of the Clinical and Laboratory Standards Institute, broth microdilution methods for yeast (CLSI M27-A2), (CLSI, 2002) and for filamentous fungi (CLSI M38-A), (CLSI, 2008).

Data set [10] has as its system Chaectomium globosum ATCC44699. As to the kind of experiment: Fungus panel screening, CLSI broth microdilution. It is filed as cell-based. Here is the method:
as §3

The test system of data set [11] is Aspergillus flavus ATCC204304. The experiment in a line: Fungus panel screening, CLSI broth microdilution. Format: cell-based. Here is the method:
as §3

The mark [12] stands for this setting: broth microdilution assay, n = 3.
[13] abbreviates: Aspergillus fumigatus NCPF2010, resazurin-microtitre assay.
Where [14] appears, read: 50% inhibition by visual inspection (CLSI).
The mark [15] stands for this setting: 100% inhibition by visual inspection (CLSI), read-out: MIC100.

As a reminder, the MIC50 is an inhibitory concentration at the 50% level, which refers to growth in some studies and to a panel of isolates in others. One may read the CC50 as the concentration giving 50% cytotoxicity. With `Cc1cc(N2CCN(c3ccc(C(=O)Nc4ccc(F)cc4F)cc3)CC2)ccc1OC[C@@H]1CO[C@@](Cn2cncn2)(c2ccc(F)cc2F)C1` [Example 2, 4-(4-(4-(((3R,5R)-5-((1H-1,2,4-Triazol-1-yl)Methyl)-5-(2,4-Difluorophenyl) Tetrahydrofuran-3-yl)Methoxy)-3-Methylphenyl)Piperazin-1-yl)-N-(2,4-Difluorophenyl) Benzamide], the MIC in data set [1] (Aspergillus fumigatus, NCPF7099, n = 3, read-out: MIC75 against Aspergillus fumigatus isolate NCPF7099) came out at 0.0283 µM (≈ 0.0198 µg/mL); in data set [2] (Aspergillus fumigatus, NCPF2010, read-out: MIC75 against Aspergillus fumigatus isolate NCPF2010) it was 0.007 µM (≈ 0.00491 µg/mL); in [3] (Aspergillus fumigatus, read-out: MIC75 against Aspergillus fumigatus isolate L98H), 0.0816 µM (≈ 0.0572 µg/mL); in [4] (Aspergillus fumigatus, NCPF7100, read-out: MIC75 against Aspergillus fumigatus isolate NCPF7100) it was 0.0213 µM (≈ 0.0149 µg/mL); in [8] (Aspergillus fumigatus, NCPF2010, read-out: MIC75 Planktonic fungal growth), 0.00306 µM (≈ 0.00214 µg/mL). In addition, the MIC50 in [5] stood at 0.00142 µM (≈ 0.000995 µg/mL); in data set [8] (Aspergillus fumigatus, NCPF2010, read-out: MIC50 Planktonic fungal growth), 0.00074 µM (≈ 0.000519 µg/mL). Moreover, the “% Inhibition versus Infected Controls, GM in BALF” value in [6] worked out at 43%. Also, the “% Inhibition versus Infected Controls, GM in serum” value in [6] came to 27%. Moreover, the “% Inhibition versus Infected Controls, Lung Fungal Load” value in [6] is reported as 25%. The CC50 at 1 day in [7] is over 14.3 µM.
`C[C@@H]1[C@H](O)[C@@H](C)/C=C/C=C/C=C/C=C/C=C/C=C/C=C/[C@H](O[C@@H]2O[C@H](C)[C@@H](O)[C@H](N)[C@@H]2O)C[C@@H]2O[C@](O)(C[C@@H](O)C[C@@H](O)[C@H](O)CC[C@@H](O)C[C@@H](O)CC(=O)O[C@H]1C)C[C@H](O)[C@H]2C(=O)O` [Amphotericin B, reference compound]: in data set [1] (n = 3, read-out: MIC75 against Aspergillus fumigatus isolate NCPF7099), the MIC turned out to be 0.365 µM (≈ 0.337 µg/mL). In addition, the MIC in data set [2] (broth microdilution assay, n = 3, read-out: MIC75 against Aspergillus fumigatus isolate NCPF2010) was 0.382 µM (≈ 0.353 µg/mL). Moreover, in data set [3] (setting [12]), the “MIC75 against Aspergillus fumigatus isolate L98H” value is 0.209 µM (≈ 0.193 µg/mL). Besides, the “MIC75 against Aspergillus fumigatus isolate NCPF7100” value in data set [4] (setting [12]) is over 1.08 µM. Further, in [8] (setting [13]), the “MIC50 Planktonic fungal growth” value worked out at 0.0285 µM (≈ 0.0263 µg/mL) and the “MIC75 Planktonic fungal growth” value stood at 0.0644 µM (≈ 0.0595 µg/mL).
For the compound `C[C@@H](c1ncncc1F)[C@](O)(Cn1cncn1)c1ccc(F)cc1F` [Voriconazole], the MIC in data set [2] (Aspergillus fumigatus, NCPF2010, broth microdilution assay, n = 3, read-out: MIC75 against Aspergillus fumigatus isolate NCPF2010) came out at 0.496 µM (≈ 0.173 µg/mL); in data set [9] (setting [15]), 1 µg/mL (≈ 2.86 µM); in data set [10] (setting [15]), 1 µg/mL (≈ 2.86 µM); in [11] (setting [15]) it was 2 µg/mL (≈ 5.73 µM). The CC50 in the data set on BEAS2B cells is over 28.6 µM. For the same compound, the MIC50 in data set [9] (setting [14]) was found to be 0.016 µg/mL (≈ 0.0458 µM); in data set [10] (setting [14]), 0.5 µg/mL (≈ 1.43 µM); in data set [11] (setting [14]) it was 1 µg/mL (≈ 2.86 µM).
